Assays:
[1] = target: soluble human BACE-1 catalytic domain (Homo sapiens (Human), UniProt P56817); assay: BACE-1 Ki Assay (BACE-1 HTRF FRET Assay); format: biochemical; details: Assay 1; Ki calculated from IC50 by Cheng-Prusoff
Outline: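 Recombinant human BACE-1 catalytic domain (3 nM in 10 μl) preincubated with inhibitor 30 min at 30° C, pH 5.0 acetate buffer with 7.5% DMSO, then 200 nM final QSY7-APPswe-Eu substrate for 1.5 h; 620 nm time-resolved fluorescence read. IC50 from nonlinear regression converted to Ki by Cheng-Prusoff using Km 8 μM.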

[2] = target: purified human autoBACE-2 (Homo sapiens (Human), UniProt Q9Y5Z0); assay: BACE-2 Assay (BACE-HTRF assay); format: biochemical; details: Assay 2; Ki calculated from IC50 by Cheng-Prusoff; read-out: BACE2 Ki
purified human autoBACE-2, sequence (Q9Y5Z0 63-466): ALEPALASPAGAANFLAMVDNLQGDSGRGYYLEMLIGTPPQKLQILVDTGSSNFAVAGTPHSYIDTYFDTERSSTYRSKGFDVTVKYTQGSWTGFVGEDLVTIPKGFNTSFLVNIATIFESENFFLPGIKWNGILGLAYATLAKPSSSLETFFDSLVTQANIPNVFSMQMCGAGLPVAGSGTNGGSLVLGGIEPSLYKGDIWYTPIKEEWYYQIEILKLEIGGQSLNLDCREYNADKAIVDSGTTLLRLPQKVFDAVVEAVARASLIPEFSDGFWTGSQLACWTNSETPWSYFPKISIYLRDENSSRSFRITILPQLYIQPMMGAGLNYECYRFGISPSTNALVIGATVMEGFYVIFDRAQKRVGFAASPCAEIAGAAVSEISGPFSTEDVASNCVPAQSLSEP
Outline: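 Purified human autoBACE-2 (1 nM final) pre-incubated 30 min at 30° C with compounds in 20 mM sodium acetate pH 5.0, 10% glycerol, 0.1% Brij-35, 5% DMSO final; endpoint HTRF cleavage of QSY7/Eu FRET peptide, read at 620 nm (320 nm excitation). IC50 by sigmoidal regression of normalized data; Ki by Cheng-Prusoff.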

soluble human BACE-1 catalytic domain, sequence (P56817 75-416): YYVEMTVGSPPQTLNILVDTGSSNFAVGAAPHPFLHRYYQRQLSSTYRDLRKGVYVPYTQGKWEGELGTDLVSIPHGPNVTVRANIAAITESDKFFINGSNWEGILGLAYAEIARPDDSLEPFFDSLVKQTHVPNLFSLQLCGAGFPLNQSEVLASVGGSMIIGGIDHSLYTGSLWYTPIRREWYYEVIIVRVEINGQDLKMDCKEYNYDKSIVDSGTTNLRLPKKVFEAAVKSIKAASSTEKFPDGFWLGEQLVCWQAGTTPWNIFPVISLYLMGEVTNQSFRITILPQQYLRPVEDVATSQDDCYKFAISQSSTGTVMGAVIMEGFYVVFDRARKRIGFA

Row | Compound | Ki [1] | Ki [2]
1 | COc1cnc2c(Nc3ccc(F)c([C@]4(C)CS(=O)(=O)C(C)(C)C(N)=N4)c3)nccc2n1 [Ex 47 of WO2014059185, reference compound] | 3.3 nM | 
2 | C[C@@]1(c2nc(Nc3nccc4cc(C#N)cnc34)ncc2F)CS(=O)(=O)[C@@](C)(C2CC2)C(N)=N1 [Example 5, 8-({4-[(3R,6S)-6-cyclopropyl-5-imino-3,6-dimethyl-1,1-dioxidothiomorpholin-3-yl]-5-fluoropyrimidin-2-yl}amino)-1,7-naphthyridine-3-carbonitrile] | 8.7 nM | 7.8 nM
3 | COc1cnc2c(Nc3cc([C@]4(C)CS(=O)(=O)[C@@](C)(C5CC5)C(N)=N4)c(F)cn3)nccc2c1 [Example 6, N-{4-[(3R,6S)-6-cyclopropyl-5-imino-3,6-dimethyl-1,1-dioxidothiomorpholin-3-yl]-5-fluoropyridin-2-yl}-3-methoxy-1,7-naphthyridin-8-amine] | 2.6 nM | 0.57 nM
4 | COc1cnc2c(Nc3ccc(F)c([C@]4(C)CS(=O)(=O)[C@@](C)(C5CC5)C(N)=N4)c3)nccc2c1 [Example 14, N-{3-[(3R,6S)-6-cyclopropyl-5-imino-3,6-dimethyl-1,1-dioxidothiomorpholin-3-yl]-4-fluorophenyl}-3-methoxy-1,7-naphthyridin-8-amine] | 9.3 nM | 2.8 nM
5 | C[C@@]1(c2cc(Nc3ncnc4cc(C#N)cnc34)ccc2F)CS(=O)(=O)[C@@](C)(C2CC2)C(N)=N1 [Example 16, 4-({3-[(3R,6S)-6-cyclopropyl-5-imino-3,6-dimethyl-1,1-dioxidothiomorpholin-3-yl]-4-fluorophenyl}amino)pyrido[3,2-d]pyrimidine-7-carbonitrile] | 2.2 nM | 1.4 nM
6 | C[C@@]1(c2cc(Nc3nccc4cc(C#N)cnc34)ccc2F)CS(=O)(=O)[C@@](C)(C2CC2)C(N)=N1 [Example 18, 8-({3-[(3R,6S)-6-cyclopropyl-5-imino-3,6-dimethyl-1,1-dioxidothiomorpholin-3-yl]-4-fluorophenyl}amino)-1,7-naphthyridine-3-carbonitrile] | 1.6 nM | 0.64 nM
7 | COc1cnc2c(Nc3ccc(F)c([C@]4(C)CS(=O)(=O)[C@@](C)(C5CC5)C(N)=N4)c3)ncnc2n1 [Example 22, (2S,5R)-2-cyclopropyl-5-(2-fluoro-5-((7-methoxypteridin-4-yl)amino)phenyl)-3-imino-2,5-dimethylthiomorpholine 1,1-dioxide] | 14 nM | 11 nM
8 | CC1(C)C(=N)N[C@](C)(c2cc(Nc3noc4cc(F)cnc34)ccc2F)CS1(=O)=O [WO′426 Ex. 30b, reference compound] | 19.2 nM | 6.1 nM
